System: L-type Ca2+ channels in GH3 cells
Assay: Inhibition of L-type calcium flux in GH3 cells (Indo-1 fluorescence)
Assay type: cell-based, rat
Experimental: Measurement of L-type Ca^2+ Channel Blocking Potencies of Compounds in GH3 Cells Using the Fluorescent Ca^2+ Indicator Indo-1
The GH3 rat pituitary cell line was obtained from the American Type Culture Collection (Rockville, Md.). Cells were grown in Ham's F-10 medium with 15% horse serum, 2.5% fetal bovine serum (FBS), and […] (Gibco, Gaithersburg, Md.). Confluent cells were detached using 0.5 mM EDTA and loaded with 5 μM Indo-acetoxymethyl ester (Molecular Probes, Eugene, Oreg.) in 1% bovine serum albumin (BSA) containing assay buffer (10 mM HEPES/Tris pH 7.4 in Hank's Balanced Salt Solution without bicarbonate or phenol red) for 60 minutes at 30° C. Loaded cells were washed twice, resuspended (approx. 10^7 cells/mL) in assay buffer containing 0.5% BSA, and kept on ice until use (<3 hrs). Different concentrations of the test compounds (60 μL in dimethyl sulfoxide) or controls were added to 5.94 mL of assay buffer containing approximately 3×10^6 loaded cells, and the samples were incubated for 10 minutes at 30° C. After incubation, samples were aliquoted into 3 cuvettes, and their fluorescence was measured with a Photon Technology International (PTI, South Brunswick, N.J.) Model RF-F3004 spectrofluorometer thermostatted at 30° C. Excitation was set at 350 nm and dual emissions were recorded at 400 and 490 nm. Basal emission signals were acquired for 20 seconds, followed by the depolarization of cells by the addition of 200 μL of a stimulation solution (1 M KCl, 68 mM CaCl2) to the stirred cuvette. Emission signals were acquired for an additional 50 seconds after depolarization. Ratio of emission signals (F400 nm/F490 nm), which is proportional to intracellular Ca^2+ concentration, was plotted against time, and the difference between the emission ratio 50 seconds after stimulation and its basal value (before stimulation) was determined. Values obtained in this way were considered as measures of depolarization-induced Ca-flux through L-type channels and plotted as a function of drug concentration. IC50 values of test compounds were calculated by fitting a four-parameter logistic function to the data using the least squares method.

Row | SMILES | IC50 [µM]
1 | CC(C)C[C@H](NC(=O)N1CCCCCC1)C(=O)N[C@@H](Cc1ccc(OCc2ccccc2)cc1)C(=O)OC(C)(C)C [Example 1] | 4.48
2 | CC(C)(C)OC(=O)[C@H](Cc1ccc(OCc2ccccc2)cc1)NC(=O)[C@H](Cc1ccccc1)NC(=O)N1CCCCCC1 [Example 16] | 4.3

From US6423689B1, “Peptidyl calcium channel blockers” (Warner-Lambert Company, priority 1997, dated 2002)
